According to PubChem BioAssay AID328 (DTP/NCI, 2004):
Where “and” joins values, the source holds several entries; their conditions need not be identical. Identical values can stand only once. Inconclusive results and toxic doses are left out. The calls were made as follows: active = survival T/C of 150% or more; inactive = T/C below 125% in these data.

Tested on: BDF1 mice, P388 leukemia ip, median survival T/C
Test: NCI In Vivo Anticancer Drug Screen. Data for tumor model P388 Leukemia (intraperitoneal) in B6D2F1 (BDF1) mice
Details: endpoint: median survival time, higher = longer survival
Summary of the method: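 Steps: implant the tumour, treat one group with compound and another with vehicle, record survival, then divide treated by control.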

[1] = dose: 6.25 mg/kg/injection, schedule: Q01DX009 (ip), vehicle: saline with Tween-80
[2] = dose: 12.5 mg/kg/injection, schedule: Q01DX009 (ip), vehicle: saline with Tween-80
[3] = dose: 25.0 mg/kg/injection, schedule: Q01DX009 (ip), vehicle: saline with Tween-80
[4] = dose: 12.5 mg/kg/injection, schedule: Q01DX009 (ip), vehicle: saline
[5] = dose: 50.0 mg/kg/injection, schedule: Q01DX009 (ip), vehicle: saline with Tween-80
[6] = dose: 100.0 mg/kg/injection, schedule: Q01DX009 (ip), vehicle: saline with Tween-80
[7] = dose: 200.0 mg/kg/injection, schedule: Q01DX009 (ip), vehicle: saline with Tween-80
[8] = dose: 100.0 mg/kg/injection, schedule: Q04DX003 (ip), vehicle: Klucel (hydroxypropylcellulose) (HPC)
[9] = dose: 200.0 mg/kg/injection, schedule: Q04DX003 (ip), vehicle: Klucel (hydroxypropylcellulose) (HPC)
[10] = dose: 400.0 mg/kg/injection, schedule: Q04DX003 (ip), vehicle: Klucel (hydroxypropylcellulose) (HPC)

Measured: T/C

O=C1c2ccccc2C(=O)N1/N=C/C=C/c1ccccc1
inactive: dose: 87.5 mg/kg/injection, schedule: Q01DX009 (ip), vehicle: saline with Tween-80 106 % of control | dose: 175.0 mg/kg/injection, schedule: Q01DX009 (ip), vehicle: saline with Tween-80 95 % of control | dose: 350.0 mg/kg/injection, schedule: Q01DX009 (ip), vehicle: saline with Tween-80 87 % of control

COc1ccc(CC2c3cc(OC)c(OC)cc3CCN2C)cc1OC (stereo unspecified)
inactive: dose: 50.0 mg/kg/injection, schedule: Q01DX005 (ip), vehicle: saline with Tween-80 90 % of control

CNC(=S)N/N=C(\C)c1ccccn1
inactive: [1] 102 % of control | [2] 121 % of control | [3] 102 % of control

CCC1C2CC3C4N(C)c5ccc(Br)cc5C45CC(C2C5O)[N+]3(CC(O)CN2CCCCC2)C1O (stereo unspecified)
inactive: [4] 106 % of control | dose: 25.0 mg/kg/injection, schedule: Q01DX009 (ip), vehicle: saline 115 % of control | dose: 50.0 mg/kg/injection, schedule: Q01DX009 (ip), vehicle: saline 89 % of control and 93 % of control

NC(=S)c1ncc(N)s1
inactive: [3] 89 % of control | [5] 98 % of control | [6] 106 % of control

CO[C@@H]1[C@H](O)CC[C@]2(CO2)[C@H]1[C@@]1(C)O[C@@H]1CC=C(C)C
inactive: dose: 3.13 mg/kg/injection, schedule: Q01DX009 (ip), vehicle: saline with Tween-80 100 % of control | [1] 97 % of control | [2] 106 % of control | [4] 98 % of control | dose: 37.5 mg/kg/injection, schedule: Q01DX009 (ip), vehicle: saline with Tween-80 100 % of control

COC(=O)C1=C(\N2CCOCC2)CCCCC/C=C\1C(=O)OC
inactive: [5] 100 % of control | [7] 100 % of control

CCOn1nnc2cc(Cl)ccc21
inactive: dose: 100.0 mg/kg/injection, schedule: Q04DX003 (ip), vehicle: saline with Tween-80 113 % of control | dose: 200.0 mg/kg/injection, schedule: Q04DX003 (ip), vehicle: saline with Tween-80 113 % of control | dose: 400.0 mg/kg/injection, schedule: Q04DX003 (ip), vehicle: saline with Tween-80 106 % of control

O=C(CO)c1ccccc1
inactive: [1] 93 % of control | [2] 95 % of control | [3] 93 % of control | [5] 104 % of control

CC(=O)C1=CC(=O)NC(=O)C1C(=O)CC(C)C (stereo unspecified)
inactive: dose: 1.56 mg/kg/injection, schedule: Q01DX009 (ip), vehicle: saline + alcohol 115 % of control | dose: 3.13 mg/kg/injection, schedule: Q01DX009 (ip), vehicle: saline + alcohol 123 % of control | dose: 6.25 mg/kg/injection, schedule: Q01DX009 (ip), vehicle: other 118 % of control | dose: 6.25 mg/kg/injection, schedule: Q01DX009 (ip), vehicle: saline + alcohol 106 % of control

O=[N+]([O-])c1cc2c3ccccc3ccc2c2ccccc12
inactive: dose: 100.0 mg/kg/injection, schedule: Q01DX009 (ip), vehicle: Klucel (hydroxypropylcellulose) (HPC) 104 % of control | [8] 100 % of control | dose: 200.0 mg/kg/injection, schedule: Q01DX009 (ip), vehicle: Klucel (hydroxypropylcellulose) (HPC) 100 % of control | [9] 100 % of control | dose: 400.0 mg/kg/injection, schedule: Q01DX009 (ip), vehicle: Klucel (hydroxypropylcellulose) (HPC) 104 % of control | [10] 100 % of control

CC(C)(C)OC(=O)NNC(=O)C(CSC(c1ccccc1)c1ccccc1)N1C(=O)c2ccccc2C1=O (stereo unspecified)
inactive: [8] 95 % of control | [9] 100 % of control | [10] 90 % of control

O=P(c1ccccc1)(N1CC1)N1CC1
inactive: dose: 7.5 mg/kg/injection, schedule: Q01DX009 (ip), vehicle: saline 109 % of control | dose: 15.0 mg/kg/injection, schedule: Q01DX009 (ip), vehicle: saline 123 % of control | dose: 30.0 mg/kg/injection, schedule: Q01DX009 (ip), vehicle: saline 119 % of control

NC(=O)Oc1ccccc1
inactive: [6] 104 % of control | [7] 109 % of control | dose: 400.0 mg/kg/injection, schedule: Q01DX009 (ip), vehicle: saline with Tween-80 86 % of control
